In patent US6984521B2, “HEK293 cell line for activity studies and HTS system of α1G T-type Ca2+ channel” (Korea Institute of Science and Technology, priority 2003, dated 2006):

Columns and labels:
[1] = target: T1, α1G T-type calcium channel (Rattus norvegicus, UniProt O54898); experiment: T-type calcium channel current, whole-cell patch-clamp; assay type: cell-based; details: activated at about -30 mV; Ni2+ 1 μM to 1 mM, mibefradil 0.1 to 10 μM
T1 construct: expressed in transfected cells; host or cells: HEK293 stably expressing α1G (α1G HEK293, control) and Kir2.1+α1G HEK293
T1 sequence (O54898 whole entry): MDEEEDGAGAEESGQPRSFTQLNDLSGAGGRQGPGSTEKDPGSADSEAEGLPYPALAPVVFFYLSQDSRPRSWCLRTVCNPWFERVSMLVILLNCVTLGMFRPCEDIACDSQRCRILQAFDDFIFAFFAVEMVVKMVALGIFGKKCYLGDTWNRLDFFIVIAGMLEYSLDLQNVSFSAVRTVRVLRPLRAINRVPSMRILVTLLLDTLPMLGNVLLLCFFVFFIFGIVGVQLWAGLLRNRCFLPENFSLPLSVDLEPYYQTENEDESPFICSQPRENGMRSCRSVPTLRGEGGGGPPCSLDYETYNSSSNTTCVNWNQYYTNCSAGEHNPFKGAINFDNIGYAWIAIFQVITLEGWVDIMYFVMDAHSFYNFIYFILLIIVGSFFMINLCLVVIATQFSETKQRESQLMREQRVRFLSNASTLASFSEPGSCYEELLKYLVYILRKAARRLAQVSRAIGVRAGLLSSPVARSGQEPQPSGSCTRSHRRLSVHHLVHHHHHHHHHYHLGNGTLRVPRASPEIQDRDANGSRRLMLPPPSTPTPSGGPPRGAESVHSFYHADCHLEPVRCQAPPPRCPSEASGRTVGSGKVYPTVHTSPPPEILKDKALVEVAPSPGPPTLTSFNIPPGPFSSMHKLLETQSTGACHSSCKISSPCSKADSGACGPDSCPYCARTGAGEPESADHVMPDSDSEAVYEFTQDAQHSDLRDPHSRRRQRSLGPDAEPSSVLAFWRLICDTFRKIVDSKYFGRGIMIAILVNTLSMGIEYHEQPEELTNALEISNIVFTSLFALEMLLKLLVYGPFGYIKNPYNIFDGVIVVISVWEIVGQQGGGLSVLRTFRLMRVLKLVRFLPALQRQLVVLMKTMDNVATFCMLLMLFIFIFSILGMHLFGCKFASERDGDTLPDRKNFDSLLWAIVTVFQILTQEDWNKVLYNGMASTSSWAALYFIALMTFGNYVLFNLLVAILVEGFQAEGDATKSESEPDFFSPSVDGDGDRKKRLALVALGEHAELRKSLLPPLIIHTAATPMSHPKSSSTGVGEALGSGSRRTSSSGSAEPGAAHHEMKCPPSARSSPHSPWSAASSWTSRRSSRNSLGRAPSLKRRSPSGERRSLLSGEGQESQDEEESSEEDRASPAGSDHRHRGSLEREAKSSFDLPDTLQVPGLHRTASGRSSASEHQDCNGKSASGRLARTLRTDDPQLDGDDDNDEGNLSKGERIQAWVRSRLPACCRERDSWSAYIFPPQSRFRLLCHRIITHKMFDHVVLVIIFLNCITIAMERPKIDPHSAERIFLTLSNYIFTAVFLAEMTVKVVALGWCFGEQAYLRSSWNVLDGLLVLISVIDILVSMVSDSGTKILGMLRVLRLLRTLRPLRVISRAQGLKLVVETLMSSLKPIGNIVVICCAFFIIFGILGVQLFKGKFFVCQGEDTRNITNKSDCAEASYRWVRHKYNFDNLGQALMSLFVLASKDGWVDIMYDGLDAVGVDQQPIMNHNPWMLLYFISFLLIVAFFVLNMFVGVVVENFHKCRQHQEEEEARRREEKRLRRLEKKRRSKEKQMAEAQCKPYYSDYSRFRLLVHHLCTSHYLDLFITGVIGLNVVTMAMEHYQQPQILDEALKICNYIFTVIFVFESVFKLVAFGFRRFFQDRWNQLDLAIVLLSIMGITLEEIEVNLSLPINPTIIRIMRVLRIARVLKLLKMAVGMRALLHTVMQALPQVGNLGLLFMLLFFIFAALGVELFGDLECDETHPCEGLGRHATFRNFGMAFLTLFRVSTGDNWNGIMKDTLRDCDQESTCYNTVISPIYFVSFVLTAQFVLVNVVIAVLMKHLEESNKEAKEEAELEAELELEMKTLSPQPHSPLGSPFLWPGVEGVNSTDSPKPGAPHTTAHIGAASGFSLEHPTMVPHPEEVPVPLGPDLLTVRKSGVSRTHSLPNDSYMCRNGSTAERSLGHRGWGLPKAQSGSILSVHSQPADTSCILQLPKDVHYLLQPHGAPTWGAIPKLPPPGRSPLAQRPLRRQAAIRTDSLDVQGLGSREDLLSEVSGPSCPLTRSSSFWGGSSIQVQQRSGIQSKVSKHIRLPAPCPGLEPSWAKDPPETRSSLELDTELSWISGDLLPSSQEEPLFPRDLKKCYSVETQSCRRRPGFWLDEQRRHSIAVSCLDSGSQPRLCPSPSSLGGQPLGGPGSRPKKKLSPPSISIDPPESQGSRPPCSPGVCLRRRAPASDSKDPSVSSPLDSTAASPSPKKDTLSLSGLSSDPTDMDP
Procedure: EPC-9 amplifier (HEKA, Germany) was used to determine the current of T-type calcium channel in a single cell level by electrophysiological whole-cell patch-clamp method. An extracellular solution for determining T-type calcium channel activity comprised NaCl 140 mM, CaCl2 2 mM and HEPES 10 mM (pH 7.4), whereas an intracellular solution comprised KCl 130 mM, HEPES 10 mM, EGTA 11 mM and MgATP 5 mM (pH 7.4).
The prepared intracellular solution was introduced into a microglass electrode of about 3–4 MΦ resistance. Then, the single cell was pricked with the electrode to fix the cell membrane voltage as about −100 mV in a whole-cell recording mode. Thereafter, the inward current was determined, in which the current was induced by T-type calcium channel activity when the hypopolarization was caused by about −30 mV (50 ms duration) approximately every 10 seconds.
Furthermore, the characteristics of the channel were analyzed by comparing with IC50 value for Ni^2+ and mibefradil, the conventionally known T-type calcium channel inhibitor. About 1 μM to 1 mM of Ni^2+ and about 0.1 to 10 μM of mibefradil were administered to the cell, respectively, according to the electrophysiological whole-cell patch-clamp method as described above, and then the inhibition (%) of the maximum of the inward current, caused through T-type calcium channel activated at or about −30 mV, was determined.

Kir2.1 = target: T2, Kir2.1 (Homo sapiens, UniProt P63252); experiment: Kir2.1 channel current, whole-cell patch-clamp; assay type: cell-based; details: Kir2.1+α1G HEK293 cell; -140 to -60 mV step pulse; 1-100 μM Ba2+, 5-500 μM Cs+
T2 construct: expressed in transfected cells; host or cells: HEK293 cells stably expressing α1G T-type calcium channel, transduced with Kir2.1-pMSCVpuro retrovirus (Kir2.1+α1G HEK293)
T2 sequence (P63252 1-427): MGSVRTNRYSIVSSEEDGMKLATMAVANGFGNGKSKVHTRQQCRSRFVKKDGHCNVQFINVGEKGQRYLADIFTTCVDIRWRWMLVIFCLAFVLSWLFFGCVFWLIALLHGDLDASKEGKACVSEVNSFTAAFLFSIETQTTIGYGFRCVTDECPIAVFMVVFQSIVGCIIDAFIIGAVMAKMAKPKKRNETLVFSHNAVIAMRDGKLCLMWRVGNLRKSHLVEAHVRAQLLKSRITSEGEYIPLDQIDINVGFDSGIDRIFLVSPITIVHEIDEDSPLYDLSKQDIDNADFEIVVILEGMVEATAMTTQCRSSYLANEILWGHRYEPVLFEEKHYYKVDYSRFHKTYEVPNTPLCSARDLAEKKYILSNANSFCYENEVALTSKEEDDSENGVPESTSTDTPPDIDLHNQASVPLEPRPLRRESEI
Procedure: Further, the current of IRK-type potassium channel, Kir2.1 was also determined in a single cell level by the whole-cell patch-clamp method. An extracellular solution for determining IRK-type potassium channel activity comprised NaCl 135 mM, KCl 5.4 mM, CaCl2 1.8 mM, MgCl2 1 mM, HEPES 5 mM and glucose 10 mM (pH 7.4). An intracellular solution comprised D-gluconic acid (potassium salt form) 140 mM, MgCl2 2 mM, EGTA 1 mM, HEPES 5 mM and Na2ATP 1 mM (pH 7.4).
After the cell membrane voltage was fixed as about −60 mV in a whole-cell recording mode, −140 to −60 mV of 200 ms step pulse was applied to determine the inward current induced by potassium inwardly-rectifying channel activation of HEK293 cell.
Furthermore, the characteristics of Kir2.1 channel were analyzed by comparing with IC50 value for Ba^2+ and Cs^+, the conventionally known IRK-type potassium channel inhibitor. For this, Kir2.1 channel activity determination method, as discussed above, was used and the inhibition by the known Kir2.1 inhibitor, Ba^2+ and Cs^+, was observed.
FIG. 4e and FIG. 4f are graphs showing the maximum current that occurred at each voltage when 1–100 μM Ba^2+ and 5–500 μM Cs^+ known as Kir2.1 inhibitor were administered to Kir2.1+α1G HEK293 cell under −140 to −60 mV step pulse.

α1G HEK293 cell = experiment: Intracellular calcium with fura-2/AM, control cell; assay type: cell-based, human; details: 70 mM KCl
Procedure: (§1) The calcium concentration in the cell was determined by using fura-2/AM as a fluorescent Ca^2+ label. The cells were primarily incubated with 5 μM fura-2/AM and 0.001% Pluronic F-127 in HEPES buffer solution (150 mM NaCl, 5 mM KCl, 1 mM MgCl2, 2 mM CaCl2, 10 mM HEPES, 10 mM glucose, pH 7.4) at a room temperature for about 40 to 60 minutes and then washed several times with HEPES buffer solution. After stablilzing the cells for about 10 minutes, the cells were selectively exposed to 340 nm and 380 nm by using an inverted microscope. Thereafter, the emitter fluorescence light that was entered through 515 nm long-pass filter was passed through a cooled CCD […]. The light was converted into the intracellular calcium concentration by digital fluorescence analyzer to determine the calcium concentration.

Kir2.1+α1G HEK293 cell = experiment: Intracellular calcium with fura-2/AM, cell line of the invention; assay type: cell-based, human; details: 70 mM KCl
Procedure: as §1

Compound	IC50 for inhibition of inward current through T-type calcium channel, Kir2.1+α1G HEK293 cell compared with α1G HEK293 cell [1]	inhibition of Kir2.1 current (maximum current at each voltage) (Kir2.1)	other results
[Ni+2] [Ni^2+]	not significantly different		
[Ba+2] [Ba^2+]		inhibited in a concentration-dependent manner	
[Cs+] [Cs^+]		inhibited in a concentration-dependent manner	
COCC(=O)O[C@]1(CCN(C)CCCc2nc3ccccc3[nH]2)CCc2cc(F)ccc2[C@@H]1C(C)C [mibefradil]	not significantly different		
[Cl-].[K+] [KCl]			calcium influx (α1G HEK293 cell): does not change calcium influx; calcium influx (Kir2.1+α1G HEK293 cell): calcium influx is induced
